Results on two molecules are retold here after publication PMC10576769 (Nature Communications, 2023).

SMILES strings stand for the structures. Several values for one entry are separate records, joined by “and”; a condition that tells them apart may be missing. Equal entries are not always repeated. Where two headings read alike, the source gives them in different places. Where a SMILES comes first, the peptide text is derived from it.

One assay deals with LmPC-PLC^C143S. Format: biochemical, Listeria monocytogenes. The settings on record: Fig. 4g, as E100.
In another assay the test system is LmPC-PLC^C168S. The assay is classed as biochemical, Listeria monocytogenes. The settings on record: Fig. 4g, as E100.
The test system of assay [1] is BcPC-PLC. Format: biochemical, Bacillus cereus.
The test system of the next assay is LmPC-PLC^C143S+C168S. The assay is classed as biochemical, Listeria monocytogenes. Particulars: Fig. 4g, as E100.
In assay [2] the test system is CpPC-PLC. Format: biochemical, Clostridium perfringens.
Assay [3] deals with BcPC-PLC. The assay is classed as biochemical, Bacillus cereus. The source holds these as a separate data set.
For assay [4], the system named is CpPC-PLC. The assay is classed as biochemical, Clostridium perfringens. The source holds these as a separate data set.
The next assay concerns the target LmPC-PLC (Listeria monocytogenes serovar 1/2a, UniProt P33378). Description: biochemical. The assay is classed as biochemical. The settings on record: for Enzymatic activity towards 4-NPPC (slope): Lm 500 nM, 0 = no slope could be determined; for Enzymatic activity towards 4-NPPC (slope) / Activity of LmPC-PLC towards 4-NPPC (slope): 4-NPPC 1 mM; for Activity of LmPC-PLC towards 4-NPPC (slope): LmPC-PLC 500 nM, 20 mM MES pH 6.5, 150 mM NaCl, 50 μM ZnSO4.

Assay [5] is classed as binding. Particulars: pH 6.5.

Take `C[C@H](NC(=O)[C@@H](N)CC(N)=O)C(=O)N[C@@H](CS)C(=O)N[C@@H](CS)C(=O)N[C@@H](CC(=O)O)C(=O)N[C@@H](CCC(=O)O)C(=O)O` [NE-6] (H-NACCDE-OH; N-terminus and C-terminus assumed): the “relative activity of LmPC-PLC C143S on 4-NPPC (compared to uninhibited activity)” value came to 0.8443 with LmPC-PLC^C143S (replicate 1), 0.9328 in the assay with LmPC-PLC^C143S (replicate 2) and 0.9098 in the assay on LmPC-PLC^C143S (replicate 3). Also, the “relative activity of LmPC-PLC C168S on 4-NPPC (compared to uninhibited activity)” value in the assay on LmPC-PLC^C168S (replicate 1) stood at 0.4893; in the assay with LmPC-PLC^C168S (replicate 2), 0.5344; in the assay on LmPC-PLC^C168S (replicate 3) it was 0.4659. Also, the “relative activity on 4-NPPC (compared to uninhibited activity), Bc” value with BcPC-PLC [1] is 0.9308 and 0.8774 and 0.8898. Also, the “relative activity of LmPC-PLC C143S+ C168S on 4-NPPC (compared to uninhibited activity)” value came to 1.106 in the assay on LmPC-PLC^C143S+C168S (replicate 1), 1.078 in the assay with LmPC-PLC^C143S+C168S (replicate 2) and 1.062 in the assay on LmPC-PLC^C143S+C168S (replicate 3). In addition, in the assay with CpPC-PLC [2], the “relative activity on 4-NPPC (compared to uninhibited activity), Cp” value was 0.8963 and 0.9574 and 0.885. The “relative activity on POPC (compared to uninhibited activity), Bc” value with BcPC-PLC [3] was 1.041 and 0.8984 and 0.9777. For the same molecule, the “relative activity on POPC (compared to uninhibited activity), Cp” value in the assay on CpPC-PLC [4] is 1.136 and 1.059 and 1.144.
As to `c1cnc2c(c1)ccc1cccnc12` [O-phe, O-phenanthroline], the “Enzymatic activity towards 4-NPPC (slope)” value in the assay on BcPC-PLC [1] stood at 0; at LmPC-PLC (O-phe 1 mM + ions (50 μM ZnSO4), replicate 1) it was 0; on LmPC-PLC (O-phe 1 mM + ions (50 μM ZnSO4), replicate 2), 0; at LmPC-PLC (O-phe 1 mM + ions (50 μM ZnSO4), replicate 3), 0; at LmPC-PLC (O-phe 1 mM, no ions added, replicate 1), 0; on LmPC-PLC (O-phe 1 mM, no ions added, replicate 2), 0. Also, the “Enzymatic activity towards 4-NPPC (slope)” value on LmPC-PLC (O-phe 1 mM, no ions added, replicate 3) came to 0; in the assay on CpPC-PLC [2], 0. In addition, the “inhibition of LmPC-PLC activity by O-phe” value against LmPC-PLC (O-phe 1 mM, 50 μM Zn2+ added to the protein, 30 min preincubation, 4-NPPC, Supplementary Fig. 9c) was “completely inhibited”. For the same molecule, the “Activity of LmPC-PLC towards 4-NPPC (slope)” value at LmPC-PLC (inhibitor 4 uM, replicate 1 of N=3) was determined as 0.0003865 abs/min; on LmPC-PLC (inhibitor 4 uM, replicate 2 of N=3) it was 0.0003893 abs/min; at LmPC-PLC (inhibitor 4 uM, replicate 3 of N=3), 0.0004002 abs/min; at LmPC-PLC (inhibitor 8 uM, replicate 1 of N=3), 0.0003883 abs/min; on LmPC-PLC (inhibitor 8 uM, replicate 2 of N=3), 0.0003708 abs/min; on LmPC-PLC (inhibitor 8 uM, replicate 3 of N=3) it was 0.0003802 abs/min. Further, the “Activity of LmPC-PLC towards 4-NPPC (slope)” value is reported as 0.0003736 abs/min at LmPC-PLC (inhibitor 16 uM, replicate 1 of N=3); 0.0003589 abs/min at LmPC-PLC (inhibitor 16 uM, replicate 2 of N=3); 0.0003489 abs/min at LmPC-PLC (inhibitor 16 uM, replicate 3 of N=3); 0.0003148 abs/min at LmPC-PLC (inhibitor 31 uM, replicate 1 of N=3); 0.0003263 abs/min at LmPC-PLC (inhibitor 31 uM, replicate 2 of N=3); 0.0003082 abs/min at LmPC-PLC (inhibitor 31 uM, replicate 3 of N=3). The “Activity of LmPC-PLC towards 4-NPPC (slope)” value at LmPC-PLC (inhibitor 63 uM, replicate 1 of N=3, value 0 = no slope could be determined) came to 0.0002666 abs/min; at LmPC-PLC (inhibitor 63 uM, replicate 2 of N=3, value 0 = no slope could be determined) it was 0.0002954 abs/min; at LmPC-PLC (inhibitor 63 uM, replicate 3 of N=3, value 0 = no slope could be determined), 0.000224 abs/min; on LmPC-PLC (inhibitor 125 uM, replicate 1 of N=3, value 0 = no slope could be determined), 8.381e-5 abs/min; at LmPC-PLC (inhibitor 125 uM, replicate 2 of N=3, value 0 = no slope could be determined), 0.0001203 abs/min; on LmPC-PLC (inhibitor 125 uM, replicate 3 of N=3, value 0 = no slope could be determined) it was 8.369e-5 abs/min. The “% of LLO in the pellet fraction” value in assay [5] was 22.84%.
